Measurements: BindingDB's records for doi:10.1021/jm00069a011 (Boehringer Mannheim, 1993)

Molecular target: T1, Gag-Pol polyprotein [588-1027]/[588-1147] (Human immunodeficiency virus 1, UniProt P04585)
T1 construct: 588-1027; 588-1147
Assay: HIV-1 RT Assay

COc1ccc(C23SCCN2C(=O)c2ccccc23)cc1 (stereo not drawn) [9b-(4-methoxyphenyl)-2H,3H,5H,9bH-isoindolo[1,2-b][1,3]thiazol-5-one]
IC50 (pH 7.7, 37 °C): > 30 µM

O=C1c2ccccc2C2(c3ccccc3)NCCCN12 (stereo not drawn) [10b-phenyl-1H,2H,3H,4H,6H,10bH-pyrimido[2,1-a]isoindol-6-one]
IC50: > 10 µM

O=C(O)[C@H]1CSC2(c3ccccc3)c3ccccc3C(=O)N12 (stereo partly drawn) [(3S)-5-oxo-9b-phenyl-2H,3H,5H,9bH-isoindolo[1,2-b][1,3]thiazole-3-carboxylic acid]
IC50: > 100 µM

O=C1c2ccccc2C2(c3ccccc3)N1CCS2(=O)=O (stereo not drawn) [9b-phenyl-2H,3H,5H,9bH-1,4000000-isoindolo[1,2-b][1,3]thiazole-1,1,5-trione]
IC50: > 10 µM

C[C@H]1CN2C(=O)c3ccccc3[C@@]2(c2ccccc2)O1 [(2S,9bR)-2-methyl-9b-phenyl-2H,3H,5H,9bH-isoindolo[1,2-b][1,3]oxazol-5-one]
IC50: > 100 µM

O=C1c2ccccc2C2(c3ccccc3)NCCN12 (stereo not drawn) [9b-phenyl-1H,2H,3H,5H,9bH-imidazolidino[2,1-a]isoindol-5-one]
IC50: > 100 µM

O=C1c2cnccc2C2(c3ccccc3)SCCN12 (stereo not drawn) [2-phenyl-3-thia-6,10-diazatricyclo[6.4.0.0^{2,6}]dodeca-1(12),8,10-trien-7-one]
IC50: > 100 µM

C[C@@H]1CN2C(=O)c3ccccc3[C@@]2(c2ccccc2)O1 [(2R,9bR)-2-methyl-9b-phenyl-2H,3H,5H,9bH-isoindolo[1,2-b][1,3]oxazol-5-one]
IC50: 37.6 µM

O=C1c2c(ccc3ccccc23)C2(c3ccccc3)SCCN12 (stereo not drawn) [11-phenyl-12-thia-15-azatetracyclo[8.6.0.0^{2,7}.0^{11,15}]hexadeca-1,3,5,7,9-pentaen-16-one]
IC50: > 100 µM

O=C1c2ccccc2C2(c3ccc[nH]3)SCCN12 (stereo not drawn) [9b-(1H-pyrrol-2-yl)-2H,3H,5H,9bH-isoindolo[1,2-b][1,3]thiazol-5-one]
IC50 (pH 7.7, 37 °C): > 100 µM

O=C1c2ccccc2C2(c3ccccc3)Sc3ccccc3N12 (stereo not drawn) [9-phenyl-8-thia-1-azatetracyclo[7.7.0.0^{2,7}.0^{10,15}]hexadeca-2,4,6,10,12,14-hexaen-16-one]
IC50: 40 µM

O=C1c2ncccc2C2(c3ccccc3)SCCN12 (stereo not drawn) [2-phenyl-3-thia-6,9-diazatricyclo[6.4.0.0^{2,6}]dodeca-1(12),8,10-trien-7-one]
IC50: > 100 µM

O=C1c2ccccc2C2(c3ccncc3)SCCN12 (stereo not drawn) [9b-(pyridin-4-yl)-2H,3H,5H,9bH-isoindolo[1,2-b][1,3]thiazol-5-one]
IC50: > 30 µM
